According to publication PMC4928094, “The first characterization of multidrug and toxin extrusion (MATE/SLC47) proteins in zebrafish (Danio rerio)” (Scientific Reports, 2016):

Legend:
zebrafish Mate7 [1] = molecular target: T1, zebrafish Mate7 (Danio rerio, UniProt U3PTD6); assay: DAPI inhibition assay, Mate7; format: cell-based; details: Mate7; inhibition of DAPI (2.5 μM) uptake; n = 3; NE = no effect in the compound solubility range; read-out: IC50
Procedure: (§1) HEK293T cells were transiently transfected as described previously[31] using the PEI (polyethyleneimine) reagent in 48-well plates. Cells were in parallel transfected with pcDNA3.1/His/LacZ plasmid and transfection efficiency was evaluated 24 h after transfection with the LacZ staining protocol.
(§2) HEK293T cells overexpressing respective single zebrafish Mate transporter were used for further experiments. […] DAPI fluorescence was measured at 360 and 460 nm […], respectively. The uptake into vector-transfected HEK293T cells (mock cells) was subtracted to obtain transporter-specific uptake.
(§3) Inhibition assays using DAPI as a fluorescent substrate were performed in the same transport medium. […] Compounds tested for interaction were checked using at least four concentrations but only a representative concentration (with the highest response or the largest concentration in solubility range) is shown.
(§4) For the purpose of IC50 calculations, data were fitted to the sigmoidal four-parameter dose-response model (variable slope),

zebrafish Mate4 [2] = molecular target: T2, zebrafish Mate4 (Danio rerio, UniProt U3Q0C3); assay: DAPI inhibition assay, Mate4; format: cell-based; details: Mate4; inhibition of DAPI (1 μM) uptake; n = 3; NE = no effect in the compound solubility range; read-out: IC50
Procedure: as §1, §2, §3, §4

zebrafish Mate8 [3] = molecular target: T3, zebrafish Mate8 (Danio rerio, UniProt A0A8M6YZ09); assay: DAPI inhibition assay, Mate8; format: cell-based; details: Mate8
Procedure: as §1, §2, §3, §4

zebrafish Mate3 [4] = molecular target: T4, zebrafish Mate3 (Danio rerio, UniProt A1L1P9); assay: DAPI inhibition assay, Mate3; format: cell-based; design: expressed in transfected cells; host or cells: HEK293T; details: Mate3; inhibition of DAPI (2.5 μM) uptake; n = 3; NE = no effect in the compound solubility range; read-out: IC50
T4 sequence (A1L1P9 1-590): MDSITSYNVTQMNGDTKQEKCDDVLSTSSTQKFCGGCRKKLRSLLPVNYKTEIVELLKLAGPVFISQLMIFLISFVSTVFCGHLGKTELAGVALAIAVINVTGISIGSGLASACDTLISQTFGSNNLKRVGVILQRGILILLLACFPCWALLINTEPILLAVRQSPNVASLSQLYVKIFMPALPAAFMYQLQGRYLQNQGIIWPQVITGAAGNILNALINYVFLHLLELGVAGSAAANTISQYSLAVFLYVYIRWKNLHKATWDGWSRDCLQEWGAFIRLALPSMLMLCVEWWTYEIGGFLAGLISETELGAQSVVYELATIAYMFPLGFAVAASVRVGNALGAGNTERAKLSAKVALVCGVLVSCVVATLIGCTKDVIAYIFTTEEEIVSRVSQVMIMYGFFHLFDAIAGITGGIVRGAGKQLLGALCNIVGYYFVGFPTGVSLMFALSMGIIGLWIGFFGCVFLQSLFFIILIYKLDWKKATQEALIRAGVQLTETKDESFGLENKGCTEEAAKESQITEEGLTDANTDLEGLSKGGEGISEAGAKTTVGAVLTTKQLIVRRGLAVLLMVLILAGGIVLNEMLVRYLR
Procedure: as §1, §2, §3, §4

zebrafish Mate6 [5] = molecular target: T5, zebrafish Mate6 (Danio rerio, UniProt A1L2E7); assay: DAPI inhibition assay, Mate6; format: cell-based; details: Mate6; inhibition of DAPI (1 μM) uptake; n = 3; NE = no effect in the compound solubility range; read-out: IC50
Procedure: as §1, §2, §3, §4

human MATE1 = human MATE1 ref 18; cited from earlier work
zebrafish Mate4 [6] = molecular target: T2, zebrafish Mate4; assay: Uptake of fluorescent dyes by HEK293T cells overexpressing zebrafish Mate4; details: dye uptake, mean ± SD, NT = no transport found
Procedure: as §1
(§5) HEK293T cells overexpressing respective single zebrafish Mate transporter were used for further experiments. Cell uptake of all substrates except DAPI was measured in sodium based transport medium (145 mM NaCl, 3 mM KCl, 1 mM CaCl2, 0.5 mM MgCl2, 5 mM glucose and 10 mM Tris, pH 8.4). Briefly, after 5 minute incubation period, the cells were rapidly washed two times with ice-cold phosphate-buffered saline (PBS), lysed in 250 μL of 0.1% sodium dodecyl sulphate for 30 min and transferred to the black 96-well plates where fluorescence was measured using the microplate reader (Infinite M200, Tecan, Salzburg, Austria) at following excitation and emission wavelengths: ASP^+, 450/590 nm; EtBr, 535/590 nm; Rh123, 485/530 nm; berberine, 355/540 nm; amiloride, 366/418 nm. […] DAPI fluorescence was measured at 360 and 460 nm […], respectively. The uptake into vector-transfected HEK293T cells (mock cells) was subtracted to obtain transporter-specific uptake.
(§6) Calibration curves for all substrates were generated in 0.1% SDS and in the cell matrix dissolved in 0.1% SDS. […] Using the calibration curves, uptake was expressed as pmol of substrate per mg of protein per minute. Total cell protein content was determined according to the Bradford method.
(§7) All assays were performed in 3–5 independent experiments run in triplicates. Data shown on related figures represent mean ± standard errors (SE) or standard deviations (SD). All calculations were performed using GraphPad Prism 5.00 for Windows (GraphPad Software, San Diego, California, USA) as described below. The kinetic parameters, Km and Vmax values were calculated using the Michaelis-Menten equation, […]

zebrafish Mate3 [7] = molecular target: T4, zebrafish Mate3; assay: Uptake of fluorescent dyes by HEK293T cells overexpressing zebrafish Mate3; details: dye uptake, mean ± SD; for Km: triplicate, representative experiment
Procedure: as §1, §5, §6
All assays were performed in 3–5 independent experiments run in triplicates. Data shown on related figures represent mean ± standard errors (SE) or standard deviations (SD). All calculations were performed using GraphPad Prism 5.00 for Windows (GraphPad Software, San Diego, California, USA) as described below. The kinetic parameters, Km and Vmax values were calculated using the Michaelis-Menten equation,
where V is velocity (picomoles of substrate per milligram of proteins per minute), Vmax is maximal velocity, [S] is substrate concentration and Km is the Michaelis Menten constant. The uptake into vector-transfected HEK293 cells was subtracted to obtain transporter-specific uptake.

zebrafish Mate6 [8] = molecular target: T5, zebrafish Mate6; assay: Uptake of fluorescent dyes by HEK293T cells overexpressing zebrafish Mate6; details: dye uptake, mean ± SD
Procedure: as §1, §5, §6, §7

zebrafish Mate7 [9] = molecular target: T1, zebrafish Mate7; assay: Uptake of fluorescent dyes by HEK293T cells overexpressing zebrafish Mate7; details: dye uptake, mean ± SD
Procedure: as §1, §5, §6, §7

zebrafish Mate8 [10] = molecular target: T3, zebrafish Mate8; assay: Uptake of fluorescent dyes by HEK293T cells overexpressing zebrafish Mate8; details: dye uptake, mean ± SD, NT = no transport found
Procedure: as §1, §5, §6, §7

[11] = substrate: COC(=O)c1ccccc1-c1c2ccc(=N)cc-2oc2cc(N)ccc12; assay: cells, lysate or membranes; details: dye uptake, HEK293T, mean ± SD
Procedure: (§8) Calibration curves for all substrates were generated in 0.1% SDS and in the cell matrix dissolved in 0.1% SDS. Resulting linear calibration curves were the same in the SDS and in the dissolved cell matrix. Using the calibration curves, uptake was expressed as pmol of substrate per mg of protein per minute. Total cell protein content was determined according to the Bradford method[33].
(§9) All assays were performed in 3–5 independent experiments run in triplicates. […] All calculations were performed using GraphPad Prism 5.00 for Windows (GraphPad Software, San Diego, California, USA) as described below. The kinetic parameters, Km and Vmax values were calculated using the Michaelis-Menten equation,

[12] = substrate: CN(C)c1ccc(/C=C/c2cc[n+](C)cc2)cc1; assay: cells, lysate or membranes; details: dye uptake, HEK293T, mean ± SD
Procedure: as §8, §9

[13] = substrate: N=C(N)NC(=O)c1nc(Cl)c(N)nc1N; assay: cells, lysate or membranes; details: dye uptake, HEK293T, mean ± SD
Procedure: as §8, §9

[14] = substrate: COc1ccc2cc3[n+](cc2c1OC)CCc1cc2c(cc1-3)OCO2; assay: cells, lysate or membranes; details: dye uptake, HEK293T, mean ± SD
Procedure: as §8, §9

[15] = other: Mate3, triplicate, representative experiment

T2 sequence (U3Q0C3 entry or part of it): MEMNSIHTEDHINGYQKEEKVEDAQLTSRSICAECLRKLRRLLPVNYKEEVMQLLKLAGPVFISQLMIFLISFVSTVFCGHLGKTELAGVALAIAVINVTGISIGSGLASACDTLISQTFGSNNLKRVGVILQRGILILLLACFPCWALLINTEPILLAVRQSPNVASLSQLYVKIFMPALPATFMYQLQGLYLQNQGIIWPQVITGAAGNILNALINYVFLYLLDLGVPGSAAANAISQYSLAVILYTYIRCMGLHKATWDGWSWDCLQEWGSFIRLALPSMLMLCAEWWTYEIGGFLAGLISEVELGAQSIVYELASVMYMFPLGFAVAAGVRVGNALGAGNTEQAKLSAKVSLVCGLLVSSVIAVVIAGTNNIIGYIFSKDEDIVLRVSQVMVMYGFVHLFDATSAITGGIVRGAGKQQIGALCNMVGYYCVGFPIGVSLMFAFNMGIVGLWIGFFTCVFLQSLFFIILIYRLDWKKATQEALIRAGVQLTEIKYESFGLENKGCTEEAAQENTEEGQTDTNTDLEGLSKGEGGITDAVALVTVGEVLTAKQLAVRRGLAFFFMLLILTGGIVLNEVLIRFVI
T3 sequence (A0A8M6YZ09 entry or part of it): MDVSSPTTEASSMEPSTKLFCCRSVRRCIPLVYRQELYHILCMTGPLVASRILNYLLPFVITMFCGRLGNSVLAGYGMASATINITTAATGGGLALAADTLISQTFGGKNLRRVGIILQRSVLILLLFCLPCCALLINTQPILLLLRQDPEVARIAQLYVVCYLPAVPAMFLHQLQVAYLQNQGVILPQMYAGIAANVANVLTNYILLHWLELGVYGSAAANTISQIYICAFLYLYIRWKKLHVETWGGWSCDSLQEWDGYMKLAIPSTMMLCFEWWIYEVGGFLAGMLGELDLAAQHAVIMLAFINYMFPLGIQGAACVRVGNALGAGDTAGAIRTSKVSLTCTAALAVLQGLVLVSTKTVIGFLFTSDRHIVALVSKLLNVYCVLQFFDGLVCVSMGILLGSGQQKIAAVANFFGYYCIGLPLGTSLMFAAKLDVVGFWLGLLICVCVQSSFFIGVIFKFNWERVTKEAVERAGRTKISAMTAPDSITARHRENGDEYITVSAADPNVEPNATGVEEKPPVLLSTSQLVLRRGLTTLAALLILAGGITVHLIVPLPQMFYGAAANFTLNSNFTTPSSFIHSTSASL

C[n+]1ccc(-c2ccccc2)cc1 [MPP^+, 1-methyl-4-phenylpyridinium, reference compound]
IC50 (zebrafish Mate7 [1]): 93.6 µM | IC50 (zebrafish Mate4 [2]): 434 µM | interaction strength (zebrafish Mate8 [3]; class by IC50 of DAPI uptake inhibition): weak (IC50 of 100–999 μM was classified as weak interaction) | IC50 (zebrafish Mate8 [3]; inhibition of DAPI (1 μM) uptake, n = 3, NE = no effect in the compound solubility range, read-out: IC50): 978 µM | IC50 (zebrafish Mate3 [4]): 2430 µM | IC50 (zebrafish Mate6 [5]): 27.9 µM | Km (human MATE1): 100 µM

COC(=O)c1ccccc1-c1c2ccc(=N)cc-2oc2cc(N)ccc12 [Rh123, rhodamine 123]
vmax (zebrafish Mate4 [6]): 1.03 ± 0.03 pmol/mg protein/min | vmax (zebrafish Mate3 [7]): 105 ± 5.16 pmol/mg protein/min | vmax (zebrafish Mate6 [8]): 55.6 ± 1.48 pmol/mg protein/min | vmax (zebrafish Mate7 [9]): 4.79 ± 0.17 pmol/mg protein/min | vmax (zebrafish Mate8 [10]): 12.3 ± 0.61 pmol/mg protein/min

CC[n+]1c(-c2ccccc2)c2cc(N)ccc2c2ccc(N)cc21 [EtBr, ethidium bromide]
vmax (zebrafish Mate3 [7]): 825 ± 25.5 pmol/mg protein/min | Km (zebrafish Mate3 [7]): 5.56 ± 0.5 µM

N=C(N)c1ccc(-c2cc3ccc(C(=N)N)cc3[nH]2)cc1 [DAPI, 4′,6-diamidino-2-phenylindole]
Km (zebrafish Mate4 [6]): 0.29 ± 0.04 µM | vmax (zebrafish Mate4 [6]): 47.7 ± 2.27 pmol/mg protein/min | vmax (zebrafish Mate3 [7]): 436 ± 21.8 pmol/mg protein/min | Km (zebrafish Mate3 [7]): 2.83 ± 0.34 µM | Km (zebrafish Mate6 [8]): 0.26 ± 0.05 µM | vmax (zebrafish Mate6 [8]): 44.3 ± 1.80 pmol/mg protein/min | Km (zebrafish Mate7 [9]): 1.44 ± 0.19 µM | vmax (zebrafish Mate7 [9]): 193 ± 9.15 pmol/mg protein/min | Km (zebrafish Mate8 [10]): 0.55 ± 0.07 µM | vmax (zebrafish Mate8 [10]): 24.4 ± 0.70 pmol/mg protein/min

B1: zebrafish Mate3 (Danio rerio) (protein)
chain: T4 sequence (A1L1P9 1-590)
Km [11, 15]: 8.52 ± 1.25 µM | Km [12, 15]: 13.4 ± 1.55 µM | Vmax [12, 15]: 296 ± 14.0 pmol/mg protein/min | Km [13, 15]: 33.4 ± 4.57 µM | Vmax [13, 15]: 53.1 ± 4.0 pmol/mg protein/min | Km [14, 15]: 14.4 ± 5.14 µM | Vmax [14, 15]: 242 ± 46.9 pmol/mg protein/min

B2: zebrafish Mate6 (Danio rerio) (protein)
chain: MPEAGGPLANTEQITEATAPSSKLLGCSCVRRWVPLAYREELYHVLCLTGPLLISRILSFLLPFVTTIFCGHLGNAELAGYALASATVNVTTTATGCGLALACDTLVSQTFGSKNHKRVGEILQRSMLILLLFCLPCWAILINAESILLALKQEPEVARIAQLYVTAYLPAVPAMFLHYLQVSYLQNQGIILPQMYTAVAANILNVATNYILLHAMKLGVKGSAAANSISQITICLLLFAYIRWKKLHLKTWGGWSTASLQEWGSYMKLAIPSTLMLCFEWWIYEIGGFLAGMLGEVDLAAQHVLLEIGSIAYMFPLGVHAAACVRVGNALGAGDTVRALITSKVTLMISGILAFAQGIGIALTKSKLGYIFTSDESIVAIVSQNLTLYVFLQFFDALVCVCSGILLGAGKQKIAAVSNLICYYCIGLPVGISLMFLAELRILGLWLGLLICVIIQTCFFTTLIFKLDWKKVTEQAQKRAGKHAKVVCLPKAPLIGPVVETLVSEDQDNTEQTDGTSSIPEPWDDITGNKAQLTSSSSEVSSYIQVSTQDQDKLASECGEGQPKVLLSIKQLVLRRGLTLLITLLILIAGITVHVVCPLPEHSVQRQSNFTNDSGNFSTPFSILNITMS
Km ([11]; other: Mate6): 1.73 ± 0.16 µM | Km ([12]; other: Mate6): 6.23 ± 1.02 µM | Vmax ([12]; other: Mate6): 160 ± 10.8 pmol/mg protein/min | Km ([13]; other: Mate6): 11.1 ± 2.12 µM | Vmax ([13]; other: Mate6): 24.8 ± 1.54 pmol/mg protein/min | Km ([14]; other: Mate6): 8.35 ± 1.00 µM | Vmax ([14]; other: Mate6): 215 ± 9.72 pmol/mg protein/min

B3: zebrafish Mate7 (Danio rerio) (protein)
chain: MDVSSPGTDNLSMEPSAKLFCCGFMRRCIPLVYREELYHILRMTGPLLVCRFLNFLLFFVVTMFCGRLGNTVLAGYAMASATINVTAAATGLGLALACDTLVSQTFGSKNLLRVGIILQRGIVILTLFSLPCWALLVNTQPLLLYLGQEPEVARIAQLYVVVYLPAIPAMFLYQLQLSYLQNQGVIKPQMYASAVANVANVIANYFLLYWWDFGVYGSAAANTFAQVFNCFALFCFIRWQKLHEKTWGGWSLEALQDWGSYMKLAIPSTLMTCFEWWIYEVGGFLAGMLSEVDLAAQHVVIMLAYINYMIPLGMQGAACVRVGNALGAGETAAAILTSKVSLISAAVIAIIQGFVLGSTKTVIGYIFTSDESITELVSQLLNIYCPLQFFNGILCVGMGVLLGTGQQKIAAIANLFGYYCVGLPSSIVLMFTAGLQVAGFWLGLLIAVFLLAIFFTVAIFKLNWKKMTEEAIARTGKSANGAANGTMTTEFCSNHRNSFYQVVLNAENGNGYMVVSSQDQDERLNSTAVPEEPNVTGVEEKPPVLLSTTQLVLRRGLTTVAALLILAVGIIIHLTVPLPQVSYGAGANYTVDSNFTTANPIYSTSFI
Km ([11]; other: Mate7): 0.22 ± 0.03 µM | Km ([12]; other: Mate7): 3.51 ± 0.27 µM | Vmax ([12]; other: Mate7): 52.3 ± 1.26 pmol/mg protein/min | Km ([13]; other: Mate7): 20.6 ± 4.20 µM | Vmax ([13]; other: Mate7): 19.8 ± 1.84 pmol/mg protein/min | Km ([14]; other: Mate7): 1.76 ± 0.38 µM | Vmax ([14]; other: Mate7): 28.0 ± 2.39 pmol/mg protein/min
